Data published in patent US20100256090A1, “Alginic Acid with Low Molecular Weight, Its Salts, Uses, Preparative Methods, Pharmaceutical Compositions and Foods” (priority 2007, published 2010).

Key:
hypertension subjects [1] = assay: Clinical Example 1: blood pressure of hypertension subjects after oral granule or enteric capsule; type: in vivo, human
From the text: This clinical example explains the effects of the low molecular weight alginate salts of the present invention and the effects of the low molecular weight alginate salts of the comparative example in improving hypertension.
Male and female hypertension subjects without other disease were selected, 360 for each sex, aged from 38 to 62 with an average age of 48, whose systolic blood pressure (SBP)(s) were from 155 to 165 mmHg and diastolic blood pressure (DBP)(s) were from 100 to 125 mmHg, said SBP(s) and DBP(s) were measured in resting state. The subjects were randomly grouped, 30 subjects for each group, and orally took granule of low molecular weight potassium alginate or enteric capsule of alginic acid with low molecular weight 1 to 3 times per day with a daily dose of 50 to 200 mg/Kg according to Table 2, and blood pressures before and 24 hours after administration were measured. The granule of low molecular weight potassium alginate was prepared in the following way: potassium alginate was prepared using the alginic acid with low molecular weight according to examples 1 to 10 or comparative example 1, and then the potassium alginate was prepared into granule according to the method of example 11 or comparative example 2. The enteric capsule of alginic acid with low molecular weight was prepared according to the method of example 11 or comparative example 2. Criterion of therapeutical effect made by China Hypertension League was referred to, that is, the systolic blood pressure reduces by more than 15 mmHg and the diastolic blood pressure reduces by more than 10 mmHg 24 hours after the administration.

[2] = test system: Male Wister rats feed with high lipid diet; assay: Clinical Example 6: prevention of blood lipid increase in rats on high lipid diet; type: in vivo; settings: conclusion from Table 7, one month
Description: This clinical example explains the effects of the low molecular weight alginate salt of the present invention and the effects of the low molecular weight alginate salt of the comparative example in preventing increase of blood lipid when they are added into high lipid diet.
Male Wister rats weighted from 180 to 200 g were randomly divided into 13 groups, 8 for each group, wherein one group was designated as a blank group and feed with normal diet, one group was designated as a control group and feed with a high lipid diet comprising 1 wt % of cholesterol, 0.5 wt % of cholate, 10 wt % of lard oil and 10 wt % of yolk, and the remaining groups were feed with the high lipid diet and were given through stomach the potassium alginate aqueous solution according to the present invention for three times every day such that the daily intake of potassium alginate for each rat reached […]. After one month of feeding, lipoprotein in serum, total cholesterol (TC), triglyeride (TG), high density lipoprotein cholesterol (HDL-C) and low density lipoprotein cholesterol as well as very low density lipoprotein cholesterol [(LDL+VLDL)-C] were measured using enzymatic methods commonly used in the clinic (for example, CHOD-PAP to measure TC and GPO-PAP to measure TG), and the results are shown in Table 7.

hypertension subjects [3] = assay: Clinical Example 7: blood pressure of hypertension subjects taking milk powder with potassium alginate; type: in vivo, human; settings: conclusion from Table 8, one month use of milk powder
Description: This clinical example explains the effects of the low molecular weight alginate salt of the present invention and the effects of the low molecular weight alginate salt of the comparative example in reducing hypertension when they are added into milk powder.
Fresh milk containing 8 wt % of solid content was added with potassium alginate until the content of the potassium alginate reached 25 wt % in term of the solid content weight, the milk was then spray dried at 150° C. to obtain a milk powder.
Male and female hypertension subjects without other disease were selected, 48 for each sex, aged from 40 to 65 with an average age of 54, whose SBP(s) were from 145 to 155 mmHg and DBP(s) were from 120 to 125 mmHg, said SBP(s) and DBP(s) were measured in resting state. The subjects were randomly grouped, 8 subjects for each group, and took the milk power after infusing it, wherein the daily dose of potassium alginate reached 10 to 30 mg/Kg and the milk power was taken continuously for one month.

Row | Compound | effective rate (hypertension subjects [1]; effective: SBP reduces by more than 15 mmHg and DBP by more than 10 mmHg 24 hours after administration, oral) | average SBP before administration (hypertension subjects [1]; first number of SBP/DBP, baseline, resting state, hypertension subjects, 30 per group) | average SBP after administration 24 h (hypertension subjects [1]; first number of SBP/DBP, oral, 1 to 3 times per day, daily dose 50 to 200 mg/Kg per Table 2, 24 hours after administration) | average DBP before administration (hypertension subjects [1]; second number of SBP/DBP, baseline, resting state, hypertension subjects, 30 per group) | average DBP after administration 24 h (hypertension subjects [1]; second number of SBP/DBP, oral, 1 to 3 times per day, daily dose 50 to 200 mg/Kg per Table 2, 24 hours after administration) | blood lipid increase preventing effect (in words) [2] | blood pressure reducing effect (in words) (hypertension subjects [3])
1 | NS(=O)(=O)c1cc2c(cc1Cl)NCNS2(=O)=O [Positive Control, Hydrochlorothiazide] | 70.1% | 162 mmHg | 121 mmHg | 118 mmHg | 95 mmHg |  | 
2 | alginic acid with low molecular weight [Comparative Example 1] |  |  |  |  |  | inferior | inferior
